# Results from patent US11000033B2, “Ketone or oxime compound, and herbicide” (NISSAN CHEMICAL CORPORATION, priority 2014, dated 2021).
# Experiments:
# Assay type in all cases: in vivo
# rapeseed = test: Test Example 5: effect on crop by foliage application, plastic box (symbol g); conditions: 320 g/ha, 3 weeks after application
# Summary of the method: (§1)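 Foliage-application test plants come from spot sowing in sterilized diluvial soil under a soil layer of about 1.5 cm, grown at 25° C. to 30° C. in a greenhouse.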
# beet = test: Test Example 5: effect on crop by foliage application, plastic box (symbol f); conditions: 320 g/ha, 3 weeks after application
# Summary of the method: as §1
# Leptochloa chinensis = test: Test Example 3: herbicidal effect by foliage application, Wagner pot (symbol D); conditions: application herbicide amount 320 g/ha
# Summary of the method: (§2)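 In a shallow-flooded alluvial soil system held at 25–30 °C, plants including rice grew for 14 days and were then sprayed over the foliage with emulsion diluted to a fixed herbicide amount. Visual rating followed at 3 weeks.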
# Apera spica-venti [1] = test: Test Example 5: herbicidal effect by foliage application, plastic box (symbol L); conditions: 320 g/ha, 3 weeks after application
# Summary of the method: (§3)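 After sowing into sterilized diluvial soil and growing two weeks under glass at 25° C. to 30° C., seedlings receive a uniform foliar spray of diluted emulsion. Damage is judged visually three weeks on.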
# Veronica persica = test: Test Example 4: herbicidal effect by soil treatment (symbol R); conditions: application herbicide amount 320 g/ha
# Summary of the method: (§4)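 Seeds were sown in sterilized diluvial soil, covered with about 1.5 cm of soil, and the soil surface was sprayed with a water-diluted emulsion of the compound at a predetermined rate. Plants grew in a greenhouse at 25° C. to 30° C.; effects were scored visually 3 weeks after application.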
# [2] = tested on: Echinochloa crus-galli var. crus-galli; test: Test Example 5: herbicidal effect by foliage application, plastic box (symbol H); conditions: 320 g/ha, 3 weeks after application
# Summary of the method: as §3
# Apera spica-venti [3] = test: Test Example 4: herbicidal effect by soil treatment (symbol L); conditions: application herbicide amount 320 g/ha
# Summary of the method: as §4
# Galium spurium = test: Test Example 4: herbicidal effect by soil treatment (symbol Q); conditions: application herbicide amount 320 g/ha
# Summary of the method: as §4
# Digitaria ciliaris = test: Test Example 4: herbicidal effect by soil treatment (symbol F); conditions: application herbicide amount 320 g/ha
# Summary of the method: as §4
# [4] = tested on: Echinochloa crus-galli var. crus-galli; test: Test Example 3: herbicidal effect by foliage application, Wagner pot (symbol H); conditions: application herbicide amount 320 g/ha
# Summary of the method: as §2
# Stellaria media [5] = test: Test Example 4: herbicidal effect by soil treatment (symbol P); conditions: application herbicide amount 320 g/ha
# Summary of the method: as §4
# Avena fatua = test: Test Example 5: herbicidal effect by foliage application, plastic box (symbol I); conditions: 320 g/ha, 3 weeks after application
# Summary of the method: as §3
# Chenopodium album = test: Test Example 4: herbicidal effect by soil treatment (symbol O); conditions: application herbicide amount 320 g/ha
# Summary of the method: as §4
# Abutilon theophrasti [6] = test: Test Example 5: herbicidal effect by foliage application, plastic box (symbol M); conditions: 320 g/ha, 3 weeks after application
# Summary of the method: as §3
# [7] = tested on: directly sowed rice plant; test: Test Example 3: effect on crop by foliage application, Wagner pot (symbol b); conditions: application herbicide amount 320 g/ha
# Summary of the method: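 Greenhouse culture at 25–30 °C of seeded rice, Cyperus difformis, Leptochloa chinensis and Echinochloa crus-galli var. crus-galli, in alluvial soil held under 0.1–0.5 cm of water in a Wagner pot.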
# rice plant = test: Test Example 5: effect on crop by foliage application, plastic box (symbol b); conditions: 320 g/ha, 3 weeks after application
# Summary of the method: as §1
# Stellaria media [8] = test: Test Example 5: herbicidal effect by foliage application, plastic box (symbol P); conditions: 320 g/ha, 3 weeks after application
# Summary of the method: as §3
# Setaria viridis [9] = test: Test Example 4: herbicidal effect by soil treatment (symbol G); conditions: application herbicide amount 320 g/ha
# Summary of the method: as §4
# transplanted rice plant = test: Test Example 1: effect on crop, application before weed generation in submerged conditions (symbol a); conditions: application herbicide amount 320 g/ha
# Summary of the method: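 Alluvial soil pots flooded to 4 cm water, sown with Echinochloa oryzacola, Scirpus juncoides and Monochoria vaginalis, then transplanted with 2.5 leaf stage rice seedlings; pre-emergence application. Greenhouse 25° C. to 30° C.; scored 0–5 by herbicidal ratio 3 weeks after application.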
# Abutilon theophrasti [10] = test: Test Example 4: herbicidal effect by soil treatment (symbol M); conditions: application herbicide amount 320 g/ha
# Summary of the method: as §4
# Setaria viridis [11] = test: Test Example 5: herbicidal effect by foliage application, plastic box (symbol G); conditions: 320 g/ha, 3 weeks after application
# Summary of the method: as §3
# Lolium multiflorum Lam. = test: Test Example 4: herbicidal effect by soil treatment (symbol K); conditions: application herbicide amount 320 g/ha
# Summary of the method: as §4
structure (smiles),measurement,setting,value
CON=C(C)CC1CC(OC(=O)SC(C)(C)C)=C(c2c(C)cc(-c3ccc(Cl)cc3)cc2C)C1=O (stereo not shown) [6-082],"g: rapeseed, effect on crop (criteria of Test Example 1)",rapeseed,4 (Herbicidal ratio of 70% or higher and lower than 90%)
same,"f: beet, effect on crop (criteria of Test Example 1)",beet,0 (Herbicidal ratio of 5% or lower (almost no effect))
same,"herbicidal effect on D (Leptochloa chinensis), grade 0-5",Leptochloa chinensis,5 (Herbicidal ratio of 90% or more (almost completely withered))
same,"L: Apera spica-venti, herbicidal effect (criteria of Test Example 1)",Apera spica-venti [1],5 (Herbicidal ratio of 90% or more (almost completely withered))
same,"R: Veronica persica, herbicidal effect grade",Veronica persica,3 (Herbicidal ratio of 40% or higher and lower than 70%)
same,"H: Echinochloa crus-galli var. crus-galli, herbicidal effect (criteria of Test Example 1)",[2],5 (Herbicidal ratio of 90% or more (almost completely withered))
same,"L: Apera spica-venti, herbicidal effect grade",Apera spica-venti [3],5 (Herbicidal ratio of 90% or more (almost completely withered))
same,"Q: Galium spurium, herbicidal effect grade",Galium spurium,0 (Herbicidal ratio of 5% or lower (almost no effect))
same,"F: Digitaria ciliaris, herbicidal effect grade",Digitaria ciliaris,5 (Herbicidal ratio of 90% or more (almost completely withered))
same,"herbicidal effect on H (Echinochloa crus-galli var. crus-galli), grade 0-5",[4],5 (Herbicidal ratio of 90% or more (almost completely withered))
same,"P: Stellaria media, herbicidal effect grade",Stellaria media [5],0 (Herbicidal ratio of 5% or lower (almost no effect))
same,"I: Avena fatua, herbicidal effect (criteria of Test Example 1)",Avena fatua,5 (Herbicidal ratio of 90% or more (almost completely withered))
same,"O: Chenopodium album, herbicidal effect grade",Chenopodium album,0 (Herbicidal ratio of 5% or lower (almost no effect))
same,"M: Abutilon theophrasti, herbicidal effect (criteria of Test Example 1)",Abutilon theophrasti [6],4 (Herbicidal ratio of 70% or higher and lower than 90%)
same,"effect on crop b (directly sowed rice plant), grade 0-5",[7],5 (Herbicidal ratio of 90% or more (almost completely withered))
same,"b: directly sowed rice plant, effect on crop (criteria of Test Example 1)",rice plant,5 (Herbicidal ratio of 90% or more (almost completely withered))
same,"P: Stellaria media, herbicidal effect (criteria of Test Example 1)",Stellaria media [8],1 (Herbicidal ratio of 5% or higher and lower than 20%)
same,"G: Setaria viridis, herbicidal effect grade",Setaria viridis [9],5 (Herbicidal ratio of 90% or more (almost completely withered))
same,"Effect grade on crop, a: transplanted rice plant",transplanted rice plant,5 (Herbicidal ratio of 90% or more (almost completely withered))
same,"M: Abutilon theophrasti, herbicidal effect grade",Abutilon theophrasti [10],2 (Herbicidal ratio of 20% or higher and lower than 40%)
same,"G: Setaria viridis, herbicidal effect (criteria of Test Example 1)",Setaria viridis [11],5 (Herbicidal ratio of 90% or more (almost completely withered))
same,"K: Lolium multiflorum Lam., herbicidal effect grade",Lolium multiflorum Lam.,5 (Herbicidal ratio of 90% or more (almost completely withered))
